“Also recorded” adds a separate entry of the source.
Key:
[1] = system: HCT-116 cells; experiment: Flow cytometry cell cycle analysis (PI); assay type: cell-based, human; conditions: HCT-116, 48 hours, dose-response
Protocol: Figure S2 CVM-1125 induced cell cycle arrest at G2/M in HCT-116 cells
Dose-response of CVM-1125 on cell cycle profile in HCT-116 cells was assessed by flow cytometry after treatment for 48 hours. Fluorescent signals of propidium iodide (FL2-A) of single cells were attributed to cell cycle phases and converted into percentage of the whole population of single cells (100%). The data shown are representative of at least three independent experiments.
(1 picture or pasted object on this page, not shown here)

[2] = target: T1, human Hsp90 recombinant protein (HSP90AB1) (Homo sapiens, UniProt P08238); experiment: Surface plasmon resonance (Biacore); assay type: binding; conditions: recombinant human Hsp90 beta protein
T1 construct: purchased Abcam ab131923
Protocol: To confirm the molecular binding of the targeted protein, Surface Plasmon Resonance (SPR) was performed with a Biacore 3000. TRAP1 recombinant protein (Abcam, ab123775) or human Hsp90 recombinant protein (HSP90AB1, Abcam, ab131923) were immobilized on a CM5 sensor chip surface using the amine coupling method according to the manufacturer’s instruction (Biacore, GE Healthcare). CVM-1125 was dissolved in sodium carbonate buffer (pH 9) and then diluted in HBS-EDTA-P20 buffer to desired concentrations (five serial dilutions from 1 × 10^−5 to 1 × 10^−8 M) and injected at flow 30 μL/min with KINJET 60/180 %pos, analyte position, volume, and dissociation time. Specific binding was calculated using BiaEval 3 software.

[3] = system: SR; experiment: NCI 60 cytotoxicity screening; assay type: cell-based; conditions: Homo sapiens, Leukemia
[4] = system: OVCAR-3; experiment: NCI 60 cytotoxicity screening; assay type: cell-based; conditions: Homo sapiens; OVCAR-3, Ovarian
[5] = system: IGROV1; experiment: NCI 60 cytotoxicity screening; assay type: cell-based; conditions: Homo sapiens, IGROV-1; IGROV1, Ovarian
[6] = system: CCRF-CEM; experiment: NCI 60 cytotoxicity screening; assay type: cell-based; conditions: Homo sapiens, Leukemia
[7] = system: OVCAR-4; experiment: NCI 60 cytotoxicity screening; assay type: cell-based; conditions: Homo sapiens; OVCAR-4, Ovarian
[8] = target: T2, TRAP1 (Homo sapiens, UniProt Q12931); experiment: Western blot of TRAP1 protein level; assay type: cell-based; parameters: purchased Abcam ab123775
T2 sequence (Q12931 60-704): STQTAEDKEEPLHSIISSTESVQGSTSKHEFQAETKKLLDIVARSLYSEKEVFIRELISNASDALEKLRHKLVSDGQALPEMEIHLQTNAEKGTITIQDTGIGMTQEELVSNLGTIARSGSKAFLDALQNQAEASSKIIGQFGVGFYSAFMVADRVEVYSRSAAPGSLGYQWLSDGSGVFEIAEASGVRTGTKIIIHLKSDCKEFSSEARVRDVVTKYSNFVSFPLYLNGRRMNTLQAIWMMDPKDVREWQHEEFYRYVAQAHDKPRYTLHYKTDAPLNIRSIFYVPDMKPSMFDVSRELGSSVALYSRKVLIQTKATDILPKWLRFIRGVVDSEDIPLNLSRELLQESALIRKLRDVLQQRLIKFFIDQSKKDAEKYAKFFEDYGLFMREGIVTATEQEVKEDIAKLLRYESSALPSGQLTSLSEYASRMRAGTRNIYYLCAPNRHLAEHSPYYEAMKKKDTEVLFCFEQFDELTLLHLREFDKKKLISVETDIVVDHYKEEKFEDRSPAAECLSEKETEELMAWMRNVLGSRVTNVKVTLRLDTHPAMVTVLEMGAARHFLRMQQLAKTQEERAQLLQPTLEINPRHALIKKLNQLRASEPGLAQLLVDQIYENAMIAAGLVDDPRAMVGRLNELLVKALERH
Protocol: The methods for detecting TRAP1 proteins were as follows: 4 × 10^5 SKOV-3 cells and 8 × 10^5 COLO-205 cells were seeded onto 6-well plates. After 18 h, the culture medium was changed to contain 50, 100, 200, and 400 nM CVM-1125, and samples were recovered for analysis at 24 or 48 h. To explore the pathway of CVM-1125 degradation of TRAP1 protein, the experimental design was as follows: 1 × 10^6 COLO-205 cells were seeded onto 6-well plates. After 18 h, the culture medium was changed to contain 200 nM CVM-1125, 25 µM chloroquine (CQ), and 2.5 µM MG132, and samples were recovered for analysis at 24 h. Cells at 80% confluence were collected with trypsin, centrifuged, and harvested by PBS into a sample buffer (1M Tris pH 6.8, 50% Glycerol, 10% SDS, 1% bromophenol blue, and 2-mercaptoethanol). Cell lysates were heated at 95°C for 10 min and loaded onto 10% SDS-PAGE. Proteins separated on the gel were transferred to a 0.45 μM PVDF membrane (Merk Milipore, IPVH00010) at 4°C overnight and was then blocked at room temperature with 5% skim milk for 30 min. The primary antibodies were diluted with 5% skim milk in PBS for β-actin (Sigma, A5441, 1:20,000) and TRAP1 (Santa Cruz, sc-13557, 1:100) and incubated for 2 h at room temperature. […]

T1 sequence (P08238 whole entry): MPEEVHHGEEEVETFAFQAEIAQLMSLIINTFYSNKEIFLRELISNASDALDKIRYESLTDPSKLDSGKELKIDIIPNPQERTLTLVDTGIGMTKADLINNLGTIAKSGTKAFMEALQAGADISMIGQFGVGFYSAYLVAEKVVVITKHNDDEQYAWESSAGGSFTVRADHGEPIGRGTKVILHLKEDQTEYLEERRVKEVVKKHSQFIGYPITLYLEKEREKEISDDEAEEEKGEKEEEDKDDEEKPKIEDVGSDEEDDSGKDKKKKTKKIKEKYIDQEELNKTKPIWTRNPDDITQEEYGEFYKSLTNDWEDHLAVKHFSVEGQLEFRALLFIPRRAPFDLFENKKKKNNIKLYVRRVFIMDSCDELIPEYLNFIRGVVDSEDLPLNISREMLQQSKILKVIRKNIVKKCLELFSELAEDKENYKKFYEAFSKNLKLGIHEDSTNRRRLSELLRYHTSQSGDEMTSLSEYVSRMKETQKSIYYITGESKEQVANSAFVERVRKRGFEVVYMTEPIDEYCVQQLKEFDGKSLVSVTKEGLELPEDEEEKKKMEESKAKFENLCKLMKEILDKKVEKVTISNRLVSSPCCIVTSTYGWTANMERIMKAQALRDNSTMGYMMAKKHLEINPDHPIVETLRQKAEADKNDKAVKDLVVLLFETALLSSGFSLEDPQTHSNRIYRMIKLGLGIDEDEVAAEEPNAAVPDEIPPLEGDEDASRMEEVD

COc1ccc2[nH]c(-c3cccc(F)c3)cc(=O)c2c1O [CVM-1125]
Effect on cell cycle profile [1]: G2/M arrest and increased sub-G1 | interaction with Hsp90 by SPR [2]: no specific interaction; also recorded: not interacting | GI50 [3]: 12 nM | GI50 [4]: 19.1 nM | GI50 [5]: 27 nM | GI50 [6]: 34.8 nM | GI50 [7]: 43.6 nM | TRAP1 protein levels ([8]; COLO205, 50–400 nM): reduced with increasing concentrations | TRAP1 protein levels ([8]; SKOV3, 50–400 nM): reduced with increasing concentrations
